Measured values taken from patent publication US7638122B2, “Stat3 antagonists and their use as vaccines against cancer” (University of South Florida, priority 2003, dated 2009).
Square brackets hold non-standard residues; d marks the D form. Ends that are not written are not given here. pY = N[C@@H](Cc1ccc(OP(=O)(O)O)cc1)C(=O)O

Tested on: bone marrow progenitor cells
Test: DC differentiation/maturation from bone marrow progenitor cells in the presence of tumor supernatants
Assay type: cell-based, mouse
Settings: supernatant from CT26 tumor cells (5%), 375 μM peptide, 6 days
Protocol: FIG. 7. Inhibition of Stat activity in dendritic cells alleviates the negative effect of tumor-secreted factors on DC differentiation. a, Stat activation in DCs treated for 1 hour with recombinant VEGF (100 ng/ml) or incubated for 15 min. with various supernatants as indicated. […] Bone marrow progenitor cells were cultured for 6 days in DC medium alone or in the presence of supernatant from CT26 tumor cells (5%) plus 375 μM of anti-Stat3 (PY*LKTK) (SEQ ID NO: 11); or control (PYLKTK) (SEQ ID NO: 12); peptide.
Preparation of bone marrow progenitor cells (BMPCs) and generation of bone marrow-derived mature DCs were carried out according to a previously described protocol (Lu et al., 2000, J. Exp. Med. 191: 541-550). Relatively mature DCs were obtained by incubating, BMPCs in medium containing GM-CSF and IL-4 for 6 days. […] Following 48 hours culture, suspension cells were collected and analyzed for IL-12 secretion by ELISA (R & D) and expression of DC-surface markers (CD86, CD40 and MHC Class II) by flow cytometry. All antibodies were purchased from PharMingen and surface expression was analyzed using a FACScan cytofluorometer (Becton Dickinson) as previously described, (Lu et al., 2000, supra). […] T-cell proliferation was measured by [^3H]-thymidine incorporation over 18 hours.

PY*LKTK (P[pY]LKTK) was tested, and the “effect of tumor-derived factors on DC differentiation” value was “relieve the negative effect of tumor-derived factors on DC differentiation”.
